From patent US7189714B2, “N-type calcium channel antagonists for the treatment of pain” (Astrazeneca AB, priority 2000, dated 2007) come the findings set out here.

The target of one experiment is N-type calcium channel (Homo sapiens, UniProt Q00975). Description: N-channel FLIPR assay (inhibition of K+-evoked calcium flux in differentiated IMR32 cells). It counts as cell-based. As to conditions: 80 mM K+ stimulus. (In general: Calcium flux is commonly read through the fluorescence of an indicator in the cells.)
Chain of N-type calcium channel (Q00975 whole entry): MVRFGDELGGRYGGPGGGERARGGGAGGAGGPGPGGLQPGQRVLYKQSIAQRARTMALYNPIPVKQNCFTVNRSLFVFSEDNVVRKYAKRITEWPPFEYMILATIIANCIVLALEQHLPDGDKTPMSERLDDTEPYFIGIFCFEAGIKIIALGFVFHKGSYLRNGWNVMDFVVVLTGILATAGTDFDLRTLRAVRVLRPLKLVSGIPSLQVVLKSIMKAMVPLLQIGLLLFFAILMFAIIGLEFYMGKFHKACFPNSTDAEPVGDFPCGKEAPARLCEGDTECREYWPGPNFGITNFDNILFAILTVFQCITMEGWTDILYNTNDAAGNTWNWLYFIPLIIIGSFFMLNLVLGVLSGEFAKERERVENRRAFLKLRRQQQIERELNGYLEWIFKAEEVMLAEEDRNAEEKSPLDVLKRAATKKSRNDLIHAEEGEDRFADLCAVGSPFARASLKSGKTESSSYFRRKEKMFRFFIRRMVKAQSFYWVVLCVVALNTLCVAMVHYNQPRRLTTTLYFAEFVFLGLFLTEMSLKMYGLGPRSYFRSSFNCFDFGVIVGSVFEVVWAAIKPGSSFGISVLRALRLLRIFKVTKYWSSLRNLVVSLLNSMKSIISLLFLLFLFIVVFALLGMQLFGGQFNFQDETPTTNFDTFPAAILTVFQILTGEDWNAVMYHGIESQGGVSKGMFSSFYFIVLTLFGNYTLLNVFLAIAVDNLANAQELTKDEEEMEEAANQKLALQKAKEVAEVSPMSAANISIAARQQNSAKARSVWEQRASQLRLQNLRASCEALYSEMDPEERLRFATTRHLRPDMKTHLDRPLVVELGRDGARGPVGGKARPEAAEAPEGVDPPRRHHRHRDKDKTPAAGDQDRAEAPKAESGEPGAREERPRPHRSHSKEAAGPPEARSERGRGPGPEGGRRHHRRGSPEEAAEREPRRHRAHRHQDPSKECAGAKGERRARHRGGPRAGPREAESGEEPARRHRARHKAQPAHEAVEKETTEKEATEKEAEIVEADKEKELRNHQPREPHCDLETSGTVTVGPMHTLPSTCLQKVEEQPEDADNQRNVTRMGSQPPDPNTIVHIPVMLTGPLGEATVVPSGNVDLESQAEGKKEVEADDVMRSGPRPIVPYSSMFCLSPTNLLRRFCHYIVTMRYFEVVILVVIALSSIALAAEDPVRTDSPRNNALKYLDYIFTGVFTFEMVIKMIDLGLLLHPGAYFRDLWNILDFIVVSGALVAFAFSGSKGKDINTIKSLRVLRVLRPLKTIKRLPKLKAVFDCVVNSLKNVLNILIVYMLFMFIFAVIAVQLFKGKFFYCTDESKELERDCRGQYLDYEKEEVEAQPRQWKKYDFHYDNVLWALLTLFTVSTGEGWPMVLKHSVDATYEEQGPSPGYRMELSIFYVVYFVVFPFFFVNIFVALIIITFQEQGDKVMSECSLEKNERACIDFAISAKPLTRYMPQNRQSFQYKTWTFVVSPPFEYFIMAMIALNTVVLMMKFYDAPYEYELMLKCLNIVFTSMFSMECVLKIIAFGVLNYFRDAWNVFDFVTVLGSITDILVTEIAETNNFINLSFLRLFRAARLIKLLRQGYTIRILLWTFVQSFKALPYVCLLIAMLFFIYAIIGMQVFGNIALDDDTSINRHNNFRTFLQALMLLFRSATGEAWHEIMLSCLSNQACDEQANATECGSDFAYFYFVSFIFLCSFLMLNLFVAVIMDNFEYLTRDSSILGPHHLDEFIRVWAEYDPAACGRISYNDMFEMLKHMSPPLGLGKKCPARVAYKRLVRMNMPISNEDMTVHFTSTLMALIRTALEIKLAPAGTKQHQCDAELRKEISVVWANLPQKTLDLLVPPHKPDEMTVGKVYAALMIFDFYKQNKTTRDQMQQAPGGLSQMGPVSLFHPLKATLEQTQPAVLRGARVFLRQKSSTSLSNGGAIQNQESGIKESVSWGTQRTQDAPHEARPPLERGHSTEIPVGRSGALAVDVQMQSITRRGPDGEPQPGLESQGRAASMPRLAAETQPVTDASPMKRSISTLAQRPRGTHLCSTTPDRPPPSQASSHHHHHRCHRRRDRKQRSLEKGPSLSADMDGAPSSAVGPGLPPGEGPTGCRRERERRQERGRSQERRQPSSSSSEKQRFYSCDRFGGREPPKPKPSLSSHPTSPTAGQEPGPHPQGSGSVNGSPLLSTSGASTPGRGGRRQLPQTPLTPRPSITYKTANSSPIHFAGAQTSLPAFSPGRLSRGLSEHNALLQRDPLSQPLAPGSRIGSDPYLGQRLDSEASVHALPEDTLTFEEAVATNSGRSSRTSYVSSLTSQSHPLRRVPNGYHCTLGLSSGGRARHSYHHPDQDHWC
Chain of N-type calcium channel (P54289 25-1103 partner): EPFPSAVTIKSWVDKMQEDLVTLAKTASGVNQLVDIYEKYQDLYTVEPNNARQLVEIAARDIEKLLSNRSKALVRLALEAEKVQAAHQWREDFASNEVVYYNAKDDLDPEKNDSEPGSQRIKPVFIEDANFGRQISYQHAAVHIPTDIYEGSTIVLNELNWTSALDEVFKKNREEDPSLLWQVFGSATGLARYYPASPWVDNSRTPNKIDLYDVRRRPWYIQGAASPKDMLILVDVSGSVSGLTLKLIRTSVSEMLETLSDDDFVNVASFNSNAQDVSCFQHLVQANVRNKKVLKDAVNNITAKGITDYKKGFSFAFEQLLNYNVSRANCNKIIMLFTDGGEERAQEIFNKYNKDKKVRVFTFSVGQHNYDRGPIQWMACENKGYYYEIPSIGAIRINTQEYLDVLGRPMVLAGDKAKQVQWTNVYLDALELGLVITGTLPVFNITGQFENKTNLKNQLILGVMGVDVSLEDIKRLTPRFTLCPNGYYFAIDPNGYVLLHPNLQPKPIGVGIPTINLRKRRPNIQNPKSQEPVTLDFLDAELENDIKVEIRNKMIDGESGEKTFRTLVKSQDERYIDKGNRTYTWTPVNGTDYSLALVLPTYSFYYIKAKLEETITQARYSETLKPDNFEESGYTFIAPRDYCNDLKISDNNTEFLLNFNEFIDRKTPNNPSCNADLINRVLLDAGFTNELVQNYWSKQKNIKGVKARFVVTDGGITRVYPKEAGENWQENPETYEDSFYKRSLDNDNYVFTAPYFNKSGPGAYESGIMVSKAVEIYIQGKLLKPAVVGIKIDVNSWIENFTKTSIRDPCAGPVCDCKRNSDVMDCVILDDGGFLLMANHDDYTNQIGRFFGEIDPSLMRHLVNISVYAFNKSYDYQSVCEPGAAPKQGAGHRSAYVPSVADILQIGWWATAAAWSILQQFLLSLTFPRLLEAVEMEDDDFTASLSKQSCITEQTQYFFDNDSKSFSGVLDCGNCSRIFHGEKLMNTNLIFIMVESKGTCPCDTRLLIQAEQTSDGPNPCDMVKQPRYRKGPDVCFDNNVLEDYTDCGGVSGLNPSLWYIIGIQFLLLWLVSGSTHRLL
Chain of N-type calcium channel (P54284 whole entry partner): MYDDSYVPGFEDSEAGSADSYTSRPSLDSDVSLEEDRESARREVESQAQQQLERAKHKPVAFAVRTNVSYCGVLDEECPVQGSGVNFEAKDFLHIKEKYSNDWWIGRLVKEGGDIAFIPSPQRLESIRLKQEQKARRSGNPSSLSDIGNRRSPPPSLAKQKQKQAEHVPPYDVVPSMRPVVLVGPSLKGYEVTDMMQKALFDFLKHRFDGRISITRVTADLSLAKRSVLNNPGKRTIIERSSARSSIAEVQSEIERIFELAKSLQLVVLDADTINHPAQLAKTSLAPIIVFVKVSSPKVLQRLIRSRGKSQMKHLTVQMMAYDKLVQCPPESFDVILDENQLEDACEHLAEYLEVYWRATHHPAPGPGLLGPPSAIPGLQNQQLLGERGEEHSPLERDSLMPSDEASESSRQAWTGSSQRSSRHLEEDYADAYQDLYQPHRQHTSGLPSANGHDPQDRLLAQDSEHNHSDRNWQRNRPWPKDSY
Another experiment deals with L-type calcium channel. Description: L-channel FLIPR assay (SK-N-SH cells). It counts as cell-based, human. Conditions: L-channel reference on each plate, near IC50; read-out: reference concentration near IC50.

Method for L-type calcium channel: An immortalized cell line, SK-N—SH, derived from human neuroblastoma cells (ATCC product # HTB-11) was used for all experiments. Cells were grown in T75 flasks containing Eagle's minimum essential medium (MEM) w/Earle's salts, with 0.1 mM non-essential amino acids, 1.0 mM Na pyruvate and 10% fetal bovine serum (FBS; Cat. # SLM-034-B, Specialty Media). Cells were grown to 100% confluency (by visual microscopic estimation) before sub-culture. Cells were sub-cultured at a ratio of 1:3 by first rinsing with 3 mL PBS, replacing the PBS with PBS containing 0.25% trypsin until the cells detached from the surface. 1 mL of the resulting suspension was then added to a new flask containing 10 mL fresh media. Cells were then incubated (37° C., 5% CO2), and media was exchanged about 3 days after subculturing.
B. Preparation of Cells for Experiments:
Cells used for experiments were at the 100% confluency growth stage. Each flask provided enough cells for three 96-well plates. […]
Maximum signal (L-channel+non-specific): 12 wells received 20 μL buffer addition only (no nitrendipine) in the first solution addition sequence to define the maximal K^+-evoked Ca^2+ increase mediated by L-channels+non-specific (non-L-channel mediated fluorescence increase). The coefficient of variation amongst these wells for the K^+-evoked peak increase in fluorescence units was typically less than 12%. […]

With “2-(3-Fluorophenyl)-N4-morpholin-4-yl-N6-cyclopropyl-quinoline-4,6-diamine [Example 32]”, on N-type calcium channel, the IC50 came to 6.46 µM.
Regarding `Nc1ccc2nc(-c3ccc(Cl)cc3)cc(N)c2c1` [Example 1, 2-(4-Chlorophenyl)-quinoline-4,6-diamine], the IC50 at N-type calcium channel is 36.3 µM.
Turning to `Nc1ccc2nc(-c3ccccc3)cc(N)c2c1` [Example 3, 2-Phenyl-quinoline-4,6-diamine], the IC50 on N-type calcium channel was found to be 17.2 µM.
`Nc1ccc2nc(-c3ccccc3)cc(NCc3ccccc3)c2c1` [Example 4, 2-Phenyl-N4-benzyl-quinoline-4,6-diamine]: the IC50 on N-type calcium channel was found to be 3.54 µM.
As to `Nc1ccc2nc(-c3cccc(C(F)(F)F)c3)cc(N)c2c1` [Example 5, 2-(3-Trifluoromethylphenyl)-quinoline-4,6-diamine], the IC50 at N-type calcium channel came out at 5.83 µM.
`CN(C)c1cc(-c2ccccc2)nc2ccc(N)cc12` [Example 6, 2-Phenyl-N4,N4-dimethyl-quinoline-4,6-diamine]: the IC50 on N-type calcium channel was 6.11 µM.
Regarding `CCCNc1cc(-c2ccccc2)nc2ccc(N)cc12` [Example 7, 2-Phenyl-N4-propyl-quinoline-4,6-diamine], the IC50 at N-type calcium channel came to 1.99 µM.
Consider `COc1cccc(-c2cc(N)c3cc(N)ccc3n2)c1` [Example 9, 2-(3-Methoxyphenyl)-quinoline-4,6-diamine], for which, on N-type calcium channel, the IC50 amounted to 2.71 µM.
Regarding `Nc1ccc2nc(-c3cccc(F)c3)cc(N)c2c1` [Example 10, 2-(3-Fluorophenyl)-quinoline-4,6-diamine], the IC50 at N-type calcium channel was determined as 3.81 µM.
Take `COc1ccc(-c2cc(N)c3cc(N)ccc3n2)cc1` [Example 11, 2-(4-Methoxyphenyl)-quinoline-4,6-diamine]: at N-type calcium channel, the IC50 came to 6.91 µM.
Turning to `CCCCCc1cc(N)c2cc(N)ccc2n1` [Example 12, 2-Pentyl-quinoline-4,6-diamine], the IC50 on N-type calcium channel was 1.89 µM.
Still for that read-out and setting: the figure for `COc1ccccc1-c1cc(N)c2cc(N)ccc2n1` [Example 13, 2-(2-Methoxyphenyl)-quinoline-4,6-diamine] is 10.5 µM; for `Nc1ccc2nc(COc3ccccc3)cc(N)c2c1` [Example 14, 2-Phenoxymethyl-quinoline-4,6-diamine] it is 2.59 µM.
`Nc1ccc2nc(-c3ccccc3Cl)cc(N)c2c1` [Example 15, 2-(2-Chlorophenyl)-quinoline-4,6-diamine]: the IC50 at N-type calcium channel was 4.13 µM.
Still for that read-out and setting: the figure for `Nc1ccc2nc(-c3ccccc3F)cc(N)c2c1` [Example 16, 2-(2-Fluorophenyl)-quinoline-4,6-diamine] is 81.6 µM; for `Nc1ccc2nc(-c3ccc(C4CCCCC4)cc3)cc(N)c2c1` [Example 19, 2-(4-Cyclohexylphenyl)-quinoline-4,6-diamine] it is 7.96 µM; for `Nc1ccc2nc(-c3ccc(Br)cc3)cc(N)c2c1` [Example 20, 2-(4-Bromophenyl)-quinoline-4,6-diamine] it is 3.18 µM.
On to `Nc1ccc2nc(-c3cccc(Br)c3)cc(N)c2c1` [Example 21, 2-(3-Bromophenyl)-quinoline-4,6-diamine], for which the IC50 at N-type calcium channel was 2.54 µM.
As to `CNc1ccc2nc(-c3ccccc3F)cc(N)c2c1` [Example 23, 2-(2-Fluorophenyl)-N6-methyl-quinoline-4,6-diamine], at N-type calcium channel, the IC50 is 3.51 µM.
Regarding `CNc1ccc2nc(-c3cccc(F)c3)cc(N)c2c1` [Example 24, 2-(3-Fluorophenyl)-N6-methyl-quinoline-4,6-diamine], the IC50 at N-type calcium channel is 2.68 µM.
In the case of `Nc1ccc2nc(-c3cccc(Cl)c3)cc(N)c2c1` [Example 25, 2-(3-Chlorophenyl)-quinoline-4,6-diamine], on N-type calcium channel, the IC50 amounted to 4.83 µM.
Consider `CN(C)c1ccc2nc(-c3cccc(F)c3)cc(N(C)C)c2c1` [Example 26, 2-(3-Fluorophenyl)-N4,N4,N6,N6-tetramethyl-quinoline-4,6-diamine], for which the IC50 at N-type calcium channel is 4.9 µM.
Consider `CN(C)c1cc(-c2cccc(F)c2)nc2ccc(N)cc12` [Example 27, 2-(3-Fluorophenyl)-N4,N4-dimethyl-quinoline-4,6-diamine], for which the IC50 on N-type calcium channel came to 5.55 µM.
Same read-out and setting: next, `CNc1ccc2nc(-c3cccc(F)c3)cc(N(C)C)c2c1` [Example 28, 2-(3-Fluorophenyl)-N4,N4,N6-trimethyl-quinoline-4,6-diamine]: 3.81 µM; `CN(C)c1cc(-c2cccc(F)c2)nc2ccc(NC3CC3)cc12` [Example 29, 2-(3 -Fluorophenyl)-N4,N4-dimethyl-N6-cyclopropyl-quinoline-4,6-diamine]: 5.44 µM.
On to `CC(C)Nc1ccc2nc(-c3cccc(F)c3)cc(N(C)C)c2c1` [Example 33, 2-(3-Fluorophenyl)-N4,N4-dimethyl-N6-isopropyl-quinoline-4,6-diamine], for which, at N-type calcium channel, the IC50 came to 2.82 µM.
For `CNc1ccc2nc(-c3cccc(F)c3)cc(NC)c2c1` [Example 37, 2-(3-Fluorophenyl)-N4,N6-dimethyl-quinoline-4,6-diamine], at N-type calcium channel, the IC50 is 2.18 µM.
`CN(C)c1cc(-c2cccc(F)c2)nc2ccc(N3CCCC3)cc12` [Example 38, 2-(3-Fluorophenyl)-N4,N4-dimethyl-6-pyrrolidin-1-yl-quinolin-4-amine]: the IC50 on N-type calcium channel came out at 9.15 µM.
With `CNc1cc(-c2cccc(F)c2)nc2ccc(N)cc12` [Example 39, 2-(3-Fluorophenyl)-N4-methyl-quinoline-4,6-diamine], the IC50 on N-type calcium channel stood at 4.53 µM.
Regarding `CN(C)c1cc(-c2cccc(F)c2)nc2ccc(Nc3cccc(N)n3)cc12` [Example 40, 2-(3-Fluorophenyl)-N4,N4-dimethyl-N6-(6-amino-pyridin-2-yl)-quinoline-4,6-diamine], on N-type calcium channel, the IC50 turned out to be 2.98 µM.
Still for that read-out and setting: next, `CNc1cc(-c2cccc(F)c2)nc2ccc(NC3CC3)cc12` [Example 41, 2-(3-Fluorophenyl)-N4-methyl-N6-cyclopropyl-quinoline-4,6-diamine]: 1.8 µM; `Cc1c(Nc2ccc3nc(-c4cccc(F)c4)cc(N(C)C)c3c2)c(=O)n(-c2ccccc2)n1C` [Example 44, 2-(3-Fluorophenyl)-N4,N4-dimethyl-N6-4-(1,5-dimethyl-2phenyl-1,2-dihydro-pyrazol-3-one)quinoline-4,6-diamine]: 5.39 µM.
In the case of `CN(C)c1cc(-c2cccc(F)c2)nc2ccc(NC3CCC3)cc12` [Example 48, 2-(3-Fluorophenyl)-N4,N4-dimethyl-N6-cyclobutyl-quinoline-4,6-diamine], the IC50 at N-type calcium channel came to 7.74 µM.
Consider `CN(C)c1cc(-c2cccc(F)c2)nc2ccc(NCC3CC3)cc12` [Example 49, 2-(3-Fluorophenyl)-N4,N4-dimethyl-N6-cyclopropylmethyl-quinoline-4,6-diamine], for which, at N-type calcium channel, the IC50 came out at 5.88 µM.
For `CN(C)c1cc(-c2cccc(F)c2)nc2ccc(NC3CCCC3)cc12` [Example 50, 2-(3-Fluorophenyl)-N4,N4-dimethyl-N6-cyclopentyl-quinoline-4,6-diamine], the IC50 on N-type calcium channel worked out at 5.9 µM.
For the compound `C=CCNc1ccc2nc(-c3cccc(F)c3)cc(N(C)C)c2c1` [Example 51, 2-(3-Fluorophenyl)-N4,N4-dimethyl-N6-allyl-quinoline-4,6-diamine], the IC50 on N-type calcium channel came out at 3.78 µM.
Regarding `CN(C)c1cc(-c2cccc(Cl)c2)nc2ccc(NC3CC3)cc12` [Example 53, 2-(3-Chlorophenyl)-N4,N4-dimethyl-N6-cyclopropyl-quinoline-4,6-diamine], the IC50 on N-type calcium channel is 7.19 µM.
The same measure, in the same setting: the figure for `COCCNc1cc(-c2cccc(F)c2)nc2ccc(NC3CC3)cc12` [Example 54, 2-(3-Fluorophenyl)-N4-(2-methoxy-ethyl)-N6-cyclopropyl-quinoline-4,6-diamine] is 1.75 µM.
Consider `CN(C)c1cc(-c2cccc(N3CCOCC3)c2)nc2ccc(NC3CC3)cc12` [Example 55, 2-(3-Morpholin-4-ylphenyl)-N4,N4-dimethyl-N6-cyclopropyl-quinoline-4,6-diamine], for which, at N-type calcium channel, the IC50 amounted to 2.31 µM.
The same measure, in the same setting: next, `CN(C)c1cc(-c2cccc(N3CCOCC3)c2)nc2ccc(N)cc12` [Example 56, 2-(3-Morpholin-4-ylphenyl)-N4,N4-dimethyl-quinoline-4,6-diamine]: 6.38 µM.
`CCOC(=O)C1=C(C)NC(C)=C(C(=O)OC)C1c1cccc([N+](=O)[O-])c1` (centres unmarked) [nitrendipine]: the IC50 with L-type calcium channel is around 0.03 µM.
